Measured values from patent US20240108001A1, “Antibacterial Composition” (LG Chem, Ltd., priority 2021, published 2024).

How the values were obtained:
3T3 = test: Acute oral toxicity dose LD50 by 3T3 Neutral Red Uptake (NRU) assay (OECD Guidance Document No 129); format: cell-based; details: LD50 calculated from 3T3 NRU assay (OECD GD 129)
Procedure: The acute oral toxicity dose LD50 was measured by 3T3 Neutral Red Uptake (NRU) assay (OECD Guidance Document No 129). Specifically, LD50 may be calculated by the following method.

[1] = Critical micelle concentration from surface tension at each concentration (Method 5, Du Nouy ring, force tensiometer); format: physicochemical; details: aqueous solutions, measurement repeated three times
Procedure: A solution comprising the compound comprising quaternary ammonium structure is prepared, and the surface tension of the solution is measured at each concentration. A calibration curve of the surface tension at each concentration is obtained, and the critical micelle concentration of the compound comprising the quaternary ammonium structure is obtained therefrom.
In this case, the surface tension at each concentration may be measured using a surface tension meter (force tensiometer) and a Du Nouy ring method.
In addition, the solution may use a solvent such as distilled water, but the solvent is not limited thereto.
The critical micelle concentrations of Monomers 2 and 3 and Comparative Monomer 2 were measured by Method 5, and are shown in the following Table 4 and FIGS. 4 to 6. More specifically, aqueous solutions (30 mL) were prepared for each concentration of Monomers 2 and 3 and Comparative Monomer 2, and the surface tension was measured using the Du Nouyring method of a force tensiometer. Each measurement was repeated three times. The surface tension was measured by preparing diluted solutions until the surface tension was similar to deionized water. The critical micelle concentration (CMC) was confirmed by confirming through the change in surface tension with concentration that each aqueous solution formed a micelle.

Row | Structure (SMILES) | Acute oral toxicity dose (mg/Kg) LD50 (3T3) | Critical micelle concentration (wt %) [1] [wt %]
1 | C=C(C)C(=O)OCC[N+](CCCC)(CCCCCCCCCC)CCCCCCCCCC [Monomer 8] | 869 mg/kg | 
2 | C=CC(=O)OCC[N+](CCCC)(CCCC)CCCCCC [Comparative Monomer 1, reference compound] | 2,355 mg/Kg | 
3 | C=CC(=O)OCC[N+](CCCC)(CCCC)CCCCCCCCCC [Monomer 2] |  | 1.5 ± 0.3
4 | C=CC(=O)OCC[N+](CCCC)(CCCC)CCCCCCCCCCCC [Monomer 3] | 843 mg/kg | 0.25 ± 0.05
5 | C=C(C)C(=O)OCC[N+](CCCC)(CCCCCCCC)CCCCCCCCCC (centres unmarked) [Monomer 7] | 998 mg/kg | 
6 | C=CC(=O)OCC[N+](CCCCCCCCCCCCCC)(CCCCCCCCCCCCCC)CCCCCCCCCCCCCC [Comparative Monomer 2, reference compound] | 231 mg/kg | 0.06 ± 0.01
